Results published in PubChem BioAssay (NCI).
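Protocol summary: plate cells (96-well), add compound at 5 concentrations, incubate 48 h, interpolate endpoints linearly. Here, GI50 denotes the concentration required for 50% inhibition of growth. TGI marks complete inhibition of growth.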

Tests used:
Experiment in all cases: inhibition of tumour cell growth, NCI panel, 48 h
786-0 renal = test system: 786-0 renal
A498 renal = test system: A498 renal
A549 NSCLC = test system: A549 NSCLC
ACHN renal = test system: ACHN renal
BT-549 breast = test system: BT-549 breast
CAKI-1 renal = test system: CAKI-1 renal
CCRF-CEM leukemia = test system: CCRF-CEM leukemia
COLO 205 colon = test system: COLO 205 colon
DU-145 prostate = test system: DU-145 prostate
EKVX NSCLC = test system: EKVX NSCLC
HCC-2998 colon = test system: HCC-2998 colon
HCT-116 colon = test system: HCT-116 colon
HCT-15 colon = test system: HCT-15 colon
HOP-62 NSCLC = test system: HOP-62 NSCLC
HOP-92 NSCLC = test system: HOP-92 NSCLC
HS 578T breast = test system: HS 578T breast
HT29 colon = test system: HT29 colon
IGROV1 ovarian = test system: IGROV1 ovarian
K-562 leukemia = test system: K-562 leukemia
KM12 colon = test system: KM12 colon
LOX IMVI melanoma = test system: LOX IMVI melanoma
M14 melanoma = test system: M14 melanoma
MALME-3M melanoma = test system: MALME-3M melanoma
MCF7 breast = test system: MCF7 breast
MDA-MB-231 breast = test system: MDA-MB-231 breast
MDA-MB-435 = test system: MDA-MB-435
MOLT-4 leukemia = test system: MOLT-4 leukemia
NCI-H226 lung = test system: NCI-H226 lung
NCI-H23 lung = test system: NCI-H23 lung
NCI-H460 lung = test system: NCI-H460 lung
NCI-H522 lung = test system: NCI-H522 lung
OVCAR-3 ovarian = test system: OVCAR-3 ovarian
OVCAR-4 ovarian = test system: OVCAR-4 ovarian
OVCAR-5 ovarian = test system: OVCAR-5 ovarian
OVCAR-8 ovarian = test system: OVCAR-8 ovarian
PC-3 prostate = test system: PC-3 prostate
RPMI-8226 leukemia = test system: RPMI-8226 leukemia
RXF 393 renal = test system: RXF 393 renal
SF-268 CNS = test system: SF-268 CNS
SF-295 CNS = test system: SF-295 CNS
SF-539 CNS = test system: SF-539 CNS
SK-MEL-2 melanoma = test system: SK-MEL-2 melanoma
SK-MEL-28 melanoma = test system: SK-MEL-28 melanoma
SK-MEL-5 melanoma = test system: SK-MEL-5 melanoma
SK-OV-3 ovarian = test system: SK-OV-3 ovarian
SN12C renal = test system: SN12C renal
SNB-19 CNS = test system: SNB-19 CNS
SNB-75 CNS = test system: SNB-75 CNS
SW-620 colon = test system: SW-620 colon
T-47D breast = test system: T-47D breast
TK-10 renal = test system: TK-10 renal
U251 CNS = test system: U251 CNS
UACC-257 melanoma = test system: UACC-257 melanoma
UACC-62 melanoma = test system: UACC-62 melanoma
UO-31 renal = test system: UO-31 renal

Work on `CC1SC(c2cccs2)N(NC(=O)C(O)c2ccccc2)C1=O` (stereo not given) yielded a GI50 (786-0 renal) greater than 100 µM, a TGI (786-0 renal) greater than 100 µM and a GI50 (A498 renal) greater than 100 µM. The TGI (A498 renal) was greater than 100 µM, the GI50 (A549 NSCLC) was greater than 100 µM and the TGI (A549 NSCLC) was greater than 100 µM. The GI50 (ACHN renal) was greater than 100 µM, the TGI (ACHN renal) was greater than 100 µM and the GI50 (BT-549 breast) was greater than 100 µM. The TGI (BT-549 breast) was greater than 100 µM, the GI50 (CAKI-1 renal) was greater than 100 µM and the TGI (CAKI-1 renal) was greater than 100 µM. The GI50 (CCRF-CEM leukemia) was greater than 100 µM, the TGI (CCRF-CEM leukemia) was greater than 100 µM and the GI50 (COLO 205 colon) was greater than 100 µM. For the same compound, the TGI (COLO 205 colon) was greater than 100 µM, the GI50 (DU-145 prostate) was greater than 100 µM and the TGI (DU-145 prostate) was greater than 100 µM. For the same compound, the GI50 (EKVX NSCLC) was greater than 100 µM, the TGI (EKVX NSCLC) was greater than 100 µM and the GI50 (HCC-2998 colon) was greater than 100 µM. For the same compound, the TGI (HCC-2998 colon) was greater than 100 µM, the GI50 (HCT-116 colon) was greater than 100 µM and the TGI (HCT-116 colon) was greater than 100 µM. For the same compound, the GI50 (HCT-15 colon) was greater than 100 µM, the TGI (HCT-15 colon) was greater than 100 µM and the GI50 (HOP-62 NSCLC) was greater than 100 µM. For the same compound, the TGI (HOP-62 NSCLC) was greater than 100 µM, the GI50 (HOP-92 NSCLC) was greater than 100 µM and the TGI (HOP-92 NSCLC) was greater than 100 µM. For the same compound, the GI50 (HS 578T breast) was greater than 100 µM, the TGI (HS 578T breast) was greater than 100 µM and the GI50 (HT29 colon) was greater than 100 µM. It also gave a TGI (HT29 colon) greater than 100 µM, a GI50 (IGROV1 ovarian) greater than 100 µM and a TGI (IGROV1 ovarian) greater than 100 µM. For the same compound, the GI50 (K-562 leukemia) was greater than 100 µM, the TGI (K-562 leukemia) was greater than 100 µM and the GI50 (KM12 colon) was greater than 100 µM. For the same compound, the TGI (KM12 colon) was greater than 100 µM, the GI50 (LOX IMVI melanoma) was greater than 100 µM and the TGI (LOX IMVI melanoma) was greater than 100 µM. The GI50 (M14 melanoma) was greater than 100 µM, the TGI (M14 melanoma) was greater than 100 µM and the GI50 (MALME-3M melanoma) was greater than 100 µM. The TGI (MALME-3M melanoma) was greater than 100 µM, the GI50 (MCF7 breast) was greater than 100 µM and the TGI (MCF7 breast) was greater than 100 µM. It also gave a GI50 (MDA-MB-231 breast) greater than 100 µM, a TGI (MDA-MB-231 breast) greater than 100 µM and a GI50 (MDA-MB-435) greater than 100 µM. It also gave a TGI (MDA-MB-435) greater than 100 µM, a GI50 (MOLT-4 leukemia) greater than 100 µM and a TGI (MOLT-4 leukemia) greater than 100 µM. For the same compound, the GI50 (NCI-H226 lung) was greater than 100 µM, the TGI (NCI-H226 lung) was greater than 100 µM and the GI50 (NCI-H23 lung) was greater than 100 µM. For the same compound, the TGI (NCI-H23 lung) was greater than 100 µM, the GI50 (NCI-H460 lung) was greater than 100 µM and the TGI (NCI-H460 lung) was greater than 100 µM. It also gave a GI50 (NCI-H522 lung) greater than 100 µM, a TGI (NCI-H522 lung) greater than 100 µM and a GI50 (OVCAR-3 ovarian) greater than 100 µM. The TGI (OVCAR-3 ovarian) was greater than 100 µM, the GI50 (OVCAR-4 ovarian) was greater than 100 µM and the TGI (OVCAR-4 ovarian) was greater than 100 µM. The GI50 (OVCAR-5 ovarian) was greater than 100 µM, the TGI (OVCAR-5 ovarian) was greater than 100 µM and the GI50 (OVCAR-8 ovarian) was greater than 100 µM. It also gave a TGI (OVCAR-8 ovarian) greater than 100 µM, a GI50 (PC-3 prostate) greater than 100 µM and a TGI (PC-3 prostate) greater than 100 µM. The GI50 (RPMI-8226 leukemia) was greater than 100 µM, the TGI (RPMI-8226 leukemia) was greater than 100 µM and the GI50 (RXF 393 renal) was greater than 100 µM. It also gave a TGI (RXF 393 renal) greater than 100 µM, a GI50 (SF-268 CNS) greater than 100 µM and a TGI (SF-268 CNS) greater than 100 µM. The GI50 (SF-295 CNS) was greater than 100 µM, the TGI (SF-295 CNS) was greater than 100 µM and the GI50 (SF-539 CNS) was greater than 100 µM. The TGI (SF-539 CNS) was greater than 100 µM, the GI50 (SK-MEL-2 melanoma) was greater than 100 µM and the TGI (SK-MEL-2 melanoma) was greater than 100 µM. The GI50 (SK-MEL-28 melanoma) was greater than 100 µM, the TGI (SK-MEL-28 melanoma) was greater than 100 µM and the GI50 (SK-MEL-5 melanoma) was greater than 100 µM. The TGI (SK-MEL-5 melanoma) was greater than 100 µM, the GI50 (SK-OV-3 ovarian) was greater than 100 µM and the TGI (SK-OV-3 ovarian) was greater than 100 µM. For the same compound, the GI50 (SN12C renal) was greater than 100 µM, the TGI (SN12C renal) was greater than 100 µM and the GI50 (SNB-19 CNS) was greater than 100 µM. It also gave a TGI (SNB-19 CNS) greater than 100 µM, a GI50 (SNB-75 CNS) greater than 100 µM and a TGI (SNB-75 CNS) greater than 100 µM. It also gave a GI50 (SW-620 colon) greater than 100 µM, a TGI (SW-620 colon) greater than 100 µM and a GI50 (T-47D breast) greater than 100 µM. It also gave a TGI (T-47D breast) greater than 100 µM, a GI50 (TK-10 renal) greater than 100 µM and a TGI (TK-10 renal) greater than 100 µM. For the same compound, the GI50 (U251 CNS) was greater than 100 µM, the TGI (U251 CNS) was greater than 100 µM and the GI50 (UACC-257 melanoma) was greater than 100 µM. It also gave a TGI (UACC-257 melanoma) greater than 100 µM, a GI50 (UACC-62 melanoma) greater than 100 µM and a TGI (UACC-62 melanoma) greater than 100 µM. For the same compound, the GI50 (UO-31 renal) was greater than 100 µM and the TGI (UO-31 renal) was greater than 100 µM.
